Experimental findings from ChEMBL document CHEMBL1139244, “Synthesis and antifungal activity of 1H-pyrrolo[3,2-g]quinoline-4,9-diones and 4,9-dioxo-4,9-dihydro-1H-benzo[f]indoles” (2009) are described below.

Format in all cases: functional
In one assay the test system is Candida albicans. Put plainly: Antifungal activity against Candida albicans KCCM 50235 after 1 day. To be noted: KCCM 50235, 24 h.
For the next assay, the system named is Cryptococcus neoformans. Nature of the assay: Antifungal activity against Cryptococcus neoformans KCCM 50564 after 1 day. To be noted: KCCM 50564, 24 h.
In another assay the test system is Aspergillus niger. Nature of the assay: Antifungal activity against Aspergillus niger KCTC 1231 after 2 days. Particulars: KCTC 1231, 48 h.
The next assay has as its system Candida tropicalis. Put plainly: Antifungal activity against Candida tropicalis KCCM 50662 after 1 day. To be noted: KCCM 50662, 24 h.
Another assay concerns Pichia kudriavzevii. Put plainly: Antifungal activity against Candida krusei KCCM 11655 after 1 day. Particulars: KCCM 11655, 24 h.

Converted amounts (≈) assume the structure as drawn.

In general, MIC refers to the lowest concentration found to suppress growth.

On to `Cn1c(N)c(C#N)c2c1C(=O)c1ccccc1C2=O`, for which the minimal inhibitory concentration (MIC) in the assay with Candida albicans stood at 12.5 µg/mL (≈ 49.8 µM); in the assay with Cryptococcus neoformans it was 12.5 µg/mL (≈ 49.8 µM); in the assay with Aspergillus niger, 25 µg/mL (≈ 99.5 µM); against Candida tropicalis it was 6.3 µg/mL (≈ 25.1 µM); in the assay with Pichia kudriavzevii it was 12.5 µg/mL (≈ 49.8 µM).

With `Nc1ccc(O)c2ncccc12`, the MIC was above 100 µg/mL against Candida albicans; 100 µg/mL (≈ 624 µM) with Cryptococcus neoformans; above 100 µg/mL in the assay on Aspergillus niger; above 100 µg/mL in the assay on Candida tropicalis; 100 µg/mL (≈ 624 µM) in the assay with Pichia kudriavzevii.

As to `CCOC(=O)c1c2c(n(-c3ccc(C)cc3)c1N)C(=O)c1ncccc1C2=O`, the MIC against Candida albicans was above 100 µg/mL; with Cryptococcus neoformans it was 12.5 µg/mL (≈ 33.3 µM); in the assay with Aspergillus niger, 25 µg/mL (≈ 66.6 µM); with Candida tropicalis, 3.2 µg/mL (≈ 8.52 µM); against Pichia kudriavzevii it was 12.5 µg/mL (≈ 33.3 µM).

For `COC(=O)c1c2c(n(-c3ccc(OC)cc3)c1N)C(=O)c1ncccc1C2=O`, the MIC was above 100 µg/mL in the assay on Candida albicans; above 100 µg/mL with Cryptococcus neoformans; 50 µg/mL (≈ 133 µM) against Aspergillus niger; above 100 µg/mL with Candida tropicalis; 12.5 µg/mL (≈ 33.1 µM) against Pichia kudriavzevii.

For `COC(=O)c1c2c(n(-c3ccccc3)c1N)C(=O)c1ncccc1C2=O`, the MIC in the assay on Candida albicans is above 100 µg/mL; against Cryptococcus neoformans it was above 100 µg/mL; with Aspergillus niger, 50 µg/mL (≈ 144 µM); with Candida tropicalis, above 100 µg/mL; against Pichia kudriavzevii it was 50 µg/mL (≈ 144 µM).

Take `CCOC(=O)c1c2c(n(-c3ccc(OC)cc3)c1N)C(=O)c1ncccc1C2=O`: the MIC against Candida albicans is above 100 µg/mL; against Cryptococcus neoformans it was 50 µg/mL (≈ 128 µM); against Aspergillus niger it was 25 µg/mL (≈ 63.9 µM); in the assay with Candida tropicalis, 12.5 µg/mL (≈ 31.9 µM); in the assay on Pichia kudriavzevii, above 100 µg/mL.

Take `COC(=O)c1c2c(n(-c3ccc(C)cc3)c1N)C(=O)c1ncccc1C2=O`: the MIC in the assay on Candida albicans is 100 µg/mL (≈ 277 µM); against Cryptococcus neoformans it was 12.5 µg/mL (≈ 34.6 µM); against Aspergillus niger, above 100 µg/mL; in the assay with Candida tropicalis, 100 µg/mL (≈ 277 µM); against Pichia kudriavzevii, 12.5 µg/mL (≈ 34.6 µM).

`CCOC(=O)c1c2c(n(-c3ccc(F)c(F)c3)c1N)C(=O)c1ncccc1C2=O`: the MIC in the assay with Candida albicans stood at 1.6 µg/mL (≈ 4.03 µM); with Cryptococcus neoformans, 50 µg/mL (≈ 126 µM); in the assay with Aspergillus niger, 25 µg/mL (≈ 62.9 µM); against Candida tropicalis, 50 µg/mL (≈ 126 µM); against Pichia kudriavzevii, 25 µg/mL (≈ 62.9 µM).

As for `CCOC(=O)c1c2c(n(-c3ccc(Cl)cc3)c1N)C(=O)c1ncccc1C2=O`, the MIC was above 100 µg/mL against Candida albicans; 50 µg/mL (≈ 126 µM) with Cryptococcus neoformans; 6.3 µg/mL (≈ 15.9 µM) against Aspergillus niger; 3.2 µg/mL (≈ 8.08 µM) in the assay with Candida tropicalis; above 100 µg/mL against Pichia kudriavzevii.

`CCOC(=O)c1c2c(n(-c3ccc(Br)cc3)c1N)C(=O)c1ncccc1C2=O`: the MIC against Candida albicans was 50 µg/mL (≈ 114 µM); in the assay with Cryptococcus neoformans, 25 µg/mL (≈ 56.8 µM); in the assay with Aspergillus niger, 50 µg/mL (≈ 114 µM); in the assay on Candida tropicalis, 3.2 µg/mL (≈ 7.27 µM); in the assay with Pichia kudriavzevii, above 100 µg/mL.

As for `CCOC(=O)c1c2c(n(-c3ccc(C(F)(F)F)cc3)c1N)C(=O)c1ncccc1C2=O`, the minimal inhibitory concentration (MIC) in the assay with Candida albicans came out at 6.3 µg/mL (≈ 14.7 µM); with Cryptococcus neoformans it was 12.5 µg/mL (≈ 29.1 µM); with Aspergillus niger it was 12.5 µg/mL (≈ 29.1 µM); in the assay on Candida tropicalis it was 0.8 µg/mL (≈ 1.86 µM); with Pichia kudriavzevii, 6.3 µg/mL (≈ 14.7 µM).

In the case of `CCOC(=O)c1c2c(n(-c3ccc(F)cc3)c1N)C(=O)c1ncccc1C2=O`, the MIC is above 100 µg/mL with Candida albicans; 25 µg/mL (≈ 65.9 µM) against Cryptococcus neoformans; 50 µg/mL (≈ 132 µM) with Aspergillus niger; 6.3 µg/mL (≈ 16.6 µM) in the assay with Candida tropicalis; above 100 µg/mL against Pichia kudriavzevii.

Take `CCn1c(N)c(C#N)c2c1C(=O)c1ccccc1C2=O`: the MIC turned out to be 25 µg/mL (≈ 94.2 µM) against Candida albicans; 12.5 µg/mL (≈ 47.1 µM) against Cryptococcus neoformans; 25 µg/mL (≈ 94.2 µM) against Aspergillus niger; 25 µg/mL (≈ 94.2 µM) in the assay on Candida tropicalis; 12.5 µg/mL (≈ 47.1 µM) in the assay with Pichia kudriavzevii.

Take `Cc1ccc(-n2c(N)c(C#N)c3c2C(=O)c2ccccc2C3=O)cc1`: the minimum inhibitory concentration (MIC) in the assay on Candida albicans is above 100 µg/mL; against Cryptococcus neoformans it was 100 µg/mL (≈ 305 µM); against Aspergillus niger it was above 100 µg/mL; against Candida tropicalis it was above 100 µg/mL; in the assay with Pichia kudriavzevii it was 3.2 µg/mL (≈ 9.78 µM).

Consider `N#Cc1c2c(n(-c3ccccc3)c1N)C(=O)c1ccccc1C2=O`, for which the MIC against Candida albicans was 100 µg/mL (≈ 319 µM); with Cryptococcus neoformans, 100 µg/mL (≈ 319 µM); in the assay with Aspergillus niger, above 100 µg/mL; in the assay with Candida tropicalis, 100 µg/mL (≈ 319 µM); in the assay on Pichia kudriavzevii it was 3.2 µg/mL (≈ 10.2 µM).

`CCOC(=O)c1c2c(n(-c3ccc(O)cc3)c1N)C(=O)c1ncccc1C2=O`: the MIC against Candida albicans is 3.2 µg/mL (≈ 8.48 µM); with Cryptococcus neoformans, 12.5 µg/mL (≈ 33.1 µM); in the assay on Aspergillus niger, 25 µg/mL (≈ 66.3 µM); in the assay on Candida tropicalis, 0.6 µg/mL (≈ 1.59 µM); in the assay on Pichia kudriavzevii it was 12.5 µg/mL (≈ 33.1 µM).

On to `CCOC(=O)c1c2c(n(-c3ccccc3)c1N)C(=O)c1ncccc1C2=O`, for which the MIC in the assay on Candida albicans is above 100 µg/mL; with Cryptococcus neoformans, 50 µg/mL (≈ 138 µM); with Aspergillus niger, 50 µg/mL (≈ 138 µM); against Candida tropicalis, 6.3 µg/mL (≈ 17.4 µM); in the assay on Pichia kudriavzevii, above 100 µg/mL.

As to `CCOC(=O)c1c2c(n(-c3ccc(I)cc3)c1N)C(=O)c1ncccc1C2=O`, the MIC worked out at 25 µg/mL (≈ 51.3 µM) in the assay on Candida albicans; 25 µg/mL (≈ 51.3 µM) with Cryptococcus neoformans; 12.5 µg/mL (≈ 25.7 µM) with Aspergillus niger; 3.2 µg/mL (≈ 6.57 µM) in the assay on Candida tropicalis; 25 µg/mL (≈ 51.3 µM) in the assay on Pichia kudriavzevii.

Turning to `OC(Cn1cncn1)(Cn1cncn1)c1ccc(F)cc1F` [FLUCONAZOLE], the MIC was 12.5 µg/mL (≈ 40.8 µM) in the assay with Candida albicans; 50 µg/mL (≈ 163 µM) in the assay on Cryptococcus neoformans; 50 µg/mL (≈ 163 µM) with Aspergillus niger; 6.3 µg/mL (≈ 20.6 µM) in the assay with Candida tropicalis; 25 µg/mL (≈ 81.6 µM) in the assay with Pichia kudriavzevii.

For the compound `Nc1nc(=O)[nH]cc1F` [FLUCYTOSINE], the MIC in the assay on Candida albicans came to 6.3 µg/mL (≈ 48.8 µM); in the assay on Cryptococcus neoformans, 12.5 µg/mL (≈ 96.8 µM); with Aspergillus niger, 50 µg/mL (≈ 387 µM); against Candida tropicalis, 12.5 µg/mL (≈ 96.8 µM); against Pichia kudriavzevii it was 6.3 µg/mL (≈ 48.8 µM).
